Structures are written as SMILES. Where a name gives a salt, the structure may show the parent alone.

The experiment deals with T1, apelin receptor (APJ) (Homo sapiens, UniProt P35414).
T1 sequence (P35414 1-380): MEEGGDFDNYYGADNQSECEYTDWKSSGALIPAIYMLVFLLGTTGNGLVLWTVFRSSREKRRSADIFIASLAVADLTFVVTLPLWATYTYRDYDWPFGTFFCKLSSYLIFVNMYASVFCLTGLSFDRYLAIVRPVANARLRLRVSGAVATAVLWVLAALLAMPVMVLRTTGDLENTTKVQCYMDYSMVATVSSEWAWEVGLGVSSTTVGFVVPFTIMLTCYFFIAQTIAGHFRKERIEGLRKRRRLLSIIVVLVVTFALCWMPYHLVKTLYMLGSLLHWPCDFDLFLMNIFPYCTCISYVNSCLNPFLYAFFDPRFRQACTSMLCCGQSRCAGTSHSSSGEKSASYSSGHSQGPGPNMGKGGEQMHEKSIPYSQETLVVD
Briefly: In vitro apelin agonist activity (methods of Giddings et al., Apelin-13 as positive control). Conditions: in vitro apelin agonist activity, methods of Giddings et al., Apelin-13 as positive control; read-out: EC50 (nM) Ave. It counts as cell-based. The source says:
Characterization of the Apelin Agonist Activity of the Compounds
1:39-47, the contents of which are hereby incorporated by reference in its entirety. Using the methods described in Giddings et al. and Apelin-13 as a positive control.
Turning to `COc1cccc(F)c1-c1cc(C(=O)N[C@@H](CCN2CCCCC2)CC(=O)NC2CCC2)nn1C1CCCC1` [compound 372, (3S)-N-cyclobutyl-3-{[1-cyclopentyl-5-(2-fluoro-6-methoxyphenyl)-1H-pyrazol-3-yl]formamido}-5-(piperidin-1-yl)pentanamide], the concentration giving a half-maximal response (EC50) was found to be 90 nM. The same measure for `O=C(C[C@H](CCN1CCCCC1)NC(=O)c1cc(-c2ccccn2)n(C2CCCC2)n1)NC1CCC1` [compound 375, (3S)-N-cyclobutyl-3-{[1-cyclopentyl-5-(pyridin-2-yl)-1H-pyrazol-3-yl]formamido}-5-(piperidin-1-yl)pentanamide]: more than 10000 nM; for `COc1cccc(OC)c1-c1cc(C(=O)N[C@@H](CC2CC2)C(=O)NC2CCC2)nn1C1CCCC1` [compound 376, (2S)-N-cyclobutyl-2-{[1-cyclopentyl-5-(2,6-dimethoxyphenyl)-1H-pyrazol-3-yl]formamido}-3-cyclopropylpropanamide]: more than 10000 nM; for `COc1cccc(OC)c1-c1cc(C(=O)N[C@@H](CC2CCC2)C(=O)NC2CCC2)nn1C1CCCC1` [compound 377, (2S)-N,3-dicyclobutyl-2-{[1-cyclopentyl-5-(2,6-dimethoxyphenyl)-1H-pyrazol-3-yl]formamido}propanamide]: more than 10000 nM.

As for `O=C(C[C@H](CCN1CCCCC1)NC(=O)c1cc(-c2cscn2)n(C2CCCC2)n1)NC1CCC1` [compound 378, (3S)-N-cyclobutyl-3-{[1-cyclopentyl-5-(1,3-thiazol-4-yl)-1H-pyrazol-3-yl]formamido}-5-(piperidin-1-yl)pentanamide], the EC50 was found to be 9390 nM. The same measure for `COc1cccc(OC)c1-c1cc(C(=O)N[C@@H](CCc2ccccc2)CC(=O)Nc2nccs2)nn1C1CCCC1` [compound 380, (3S)-3-{[1-cyclopentyl-5-(2,6-dimethoxyphenyl)-1H-pyrazol-3-yl]formamido}-5-phenyl-N-(1,3-thiazol-2-yl)pentanamide]: 94 nM; for `COc1cccc(OC)c1-c1cc(C(=O)N[C@@H](CCc2ccccc2)CC(=O)Nc2nnn[nH]2)nn1C1CCCC1` [compound 381, (3S)-3-{[1-cyclopentyl-5-(2,6-dimethoxyphenyl)-1H-pyrazol-3-yl]formamido}-5-phenyl-N-(1H-1,2,3,4-tetrazol-5-yl)pentanamide]: 647 nM. The same measure for `COc1cccc(OC)c1-c1cc(C(=O)N[C@@H](CCc2ccccc2)CC(=O)NCc2nccs2)nn1C1CCCC1` [compound 382, (3S)-3-{[1-cyclopentyl-5-(2,6-dimethoxyphenyl)-1H-pyrazol-3-yl]formamido}-5-phenyl-N-(1,3-thiazol-2-ylmethyl)pentanamide]: 3440 nM; for `COc1cccc(OC)c1-c1cc(C(=O)N[C@@H](CCc2ccccc2)CC(=O)NCc2nnn[nH]2)nn1C1CCCC1` [compound 383, (3S)-3-{[1-cyclopentyl-5-(2,6-dimethoxyphenyl)-1H-pyrazol-3-yl]formamido}-5-phenyl-N-(1H-1,2,3,4-tetrazol-5-ylmethyl)pentanamide]: 5180 nM. With `COc1cccc(OC)c1-c1cc(C(=O)N[C@@H](CC2CC2)C(=O)O)nn1C1CCCC1` [compound 385, (2S)-2-{[1-cyclopentyl-5-(2,6-dimethoxyphenyl)-1H-pyrazol-3-yl]formamido}-3-cyclopropylpropanoic acid] the figure was more than 10000 nM. Take `COc1cccc(OC)c1-c1cc(C(=O)N[C@@H](CC2CCC2)C(=O)O)nn1C1CCCC1` [compound 386, (2S)-3-cyclobutyl-2-{[1-cyclopentyl-5-(2,6-dimethoxyphenyl)-1H-pyrazol-3-yl]formamido}propanoic acid]: the 50% effective concentration (EC50) was determined as 6170 nM. The same measure for `COc1cccc(OC)c1-c1cc(C(=O)N[C@@H](CCc2ccccc2)C(=O)NCc2nnn[nH]2)nn1C1CCCC1` [compound 387, (2S)-2-{[1-cyclopentyl-5-(2,6-dimethoxyphenyl)-1H-pyrazol-3-yl]formamido}-4-phenyl-N-(1H-1,2,3,4-tetrazol-5-ylmethyl)butanamide]: 8720 nM. The same measure for `COc1cccc(OC)c1-c1cc(C(=O)N[C@@H](CCc2ccccc2)C(=O)NCc2nccs2)nn1C1CCCC1` [compound 388, (2S)-2-{[1-cyclopentyl-5-(2,6-dimethoxyphenyl)-1H-pyrazol-3-yl]formamido}-4-phenyl-N-(1,3-thiazol-2-ylmethyl)butanamide]: 399 nM; for `COc1cccc(OC)c1-c1cc(C(=O)N[C@@H](CCc2ccccc2)C(=O)O)nn1C1CCCC1` [compound 389, (2S)-2-{[1-cyclopentyl-5-(2,6-dimethoxyphenyl)-1H-pyrazol-3-yl]formamido}-4-phenylbutanoic acid]: more than 10000 nM; for `COc1cccc(OC)c1-c1cc(C(=O)N[C@@H](CCc2ccccc2)Cc2nnn[nH]2)nn1C1CCCC1` [compound 390, 1-cyclopentyl-5-(2,6-dimethoxyphenyl)-N-[(2S)-4-phenyl-1-(1H-1,2,3,4-tetrazol-5-yl)butan-2-yl]-1H-pyrazole-3-carboxamide]: 429 nM. The same measure for `COc1cccc(OC)c1-c1cc(C(=O)N[C@H](CC#N)CCc2ccccc2)nn1C1CCCC1` [compound 391, N-[(2S)-1-cyano-4-phenylbutan-2-yl]-1-cyclopentyl-5-(2,6-dimethoxyphenyl)-1H-pyrazole-3-carboxamide]: 6340 nM; for `COc1cccc(OC)c1-c1cc(C(=O)N[C@@H](CCc2ccccc2)CC(N)=O)nn1C1CCCC1` [compound 392, (3S)-3-{[1-cyclopentyl-5-(2,6-dimethoxyphenyl)-1H-pyrazol-3-yl]formamido}-5-phenylpentanamide]: more than 10000 nM; for `COc1cccc(OC)c1-c1cc(C(=O)N[C@@H](CC2CCCC2)C(=O)O)nn1C1CCCC1` [compound 393, (2S)-3-cyclopentyl-2-{[1-cyclopentyl-5-(2,6-dimethoxyphenyl)-1H-pyrazol-3-yl]formamido}propanoic acid]: 424 nM.

Take `COc1cccc(OC)c1-c1cc(C(=O)N[C@@H](CCc2ccccc2)C(=O)Nc2nnn[nH]2)nn1C1CCCC1` [compound 395, (2S)-2-{[1-cyclopentyl-5-(2,6-dimethoxyphenyl)-1H-pyrazol-3-yl]formamido}-4-phenyl-N-(1H-1,2,3,4-tetrazol-5-yl)butanamide]: the EC50 is more than 10000 nM.

Turning to `COc1cccc(OC)c1-c1cc(C(=O)N[C@@H](CCc2ccccc2)C(=O)Nc2nccs2)nn1C1CCCC1` [compound 396, (2S)-2-{[1-cyclopentyl-5-(2,6-dimethoxyphenyl)-1H-pyrazol-3-yl]formamido}-4-phenyl-N-(1,3-thiazol-2-yl)butanamide], the concentration for a half-maximal effect (EC50) is more than 10000 nM. As to `CC(C)c1ccccc1-c1cc(C(=O)N[C@@H](CCN2CCCCC2)CC(=O)NC2CCC2)nn1C1CCCC1` [compound 397, (3S)-N-cyclobutyl-3-({1-cyclopentyl-5-[2-(propan-2-yl)phenyl]-1H-pyrazol-3-yl}formamido)-5-(piperidin-1-yl)pentanamide], the EC50 was found to be 140 nM.

As for `COc1cccc(OC)c1-c1cc(C(=O)N[C@H](CCNC2CCC2)CCN2CCCCC2)nn1C1CCCC1` [compound 398, N-[(3R)-1-(cyclobutylamino)-5-(piperidin-1-yl)pentan-3-yl]-1-cyclopentyl-5-(2,6-dimethoxyphenyl)-1H-pyrazole-3-carboxamide], the EC50 is more than 10000 nM. The same measure for `CCc1cc(F)ccc1-c1cc(C(=O)N[C@@H](CCN2CCCCC2)CC(=O)NC2CCC2)nn1C1CCCC1` [compound 399, (3S)-N-cyclobutyl-3-{[1-cyclopentyl-5-(2-ethyl-4-fluorophenyl)-1H-pyrazol-3-yl]formamido}-5-(piperidin-1-yl)pentanamide]: 264 nM; for `CC(F)(F)c1ccccc1-c1cc(C(=O)N[C@@H](CCN2CCCCC2)CC(=O)NC2CCC2)nn1C1CCCC1` [compound 400, (3S)-N-cyclobutyl-3-({1-cyclopentyl-5-(2-(1,1-difluoroethyl)phenyl]-1H-pyrazol-3-yl]formamido)-5-(piperidin-1-yl)pentanamide]: 46 nM. With `COc1cccc(OC)c1-c1cc(C(=O)N[C@H](CC(=O)O)Cc2ccccc2)nn1C1CCCC1` [compound 401, (3S)-3-{[1-cyclopentyl-5-(2,6-dimethoxyphenyl)-1H-pyrazol-3-yl]formamido}-4-phenylbutanoic acid] the figure was more than 10000 nM; with `COc1cccc(OC)c1-c1cc(C(=O)N[C@H](CC(=O)Nc2nccs2)Cc2ccccc2)nn1C1CCCC1` [compound 402, (3S)-3-{[1-cyclopentyl-5-(2,6-dimethoxyphenyl)-1H-pyrazol-3-yl]formamido}-4-phenyl-N-(1,3-thiazol-2-yl)butanamide], 203 nM. The same measure for `CCc1ccccc1-c1cc(C(=O)N[C@@H](CCN2CCCCC2)CC(=O)O)nn1C1CCCC1` [compound 403, (3S)-3-{[1-cyclopentyl-5-(2-ethylphenyl)-1H-pyrazol-3-yl]formamido}-5-(piperidin-1-yl)pentanoic acid hydrochloride]: 42 nM.

On to `CCc1ccccc1-c1cc(C(=O)N[C@@H](CCN2CCCC(F)(F)C2)CC(=O)O)nn1C1CCCC1` [compound 404, (3S)-3-{[1-cyclopentyl-5-(2-ethylphenyl)-1H-pyrazol-3-yl]formamido}-5-(3,3-difluoropiperidin-1-yl)pentanoic acid], for which the EC50 was found to be 65 nM.

The EC50 is the concentration needed to bring the measured effect to its halfway point.

These data come from patent US11535630B2, “Apelin receptor (APJ) agonists and uses thereof” (Research Triangle Institute, priority 2015, dated 2022).
